Results published in ChEMBL document CHEMBL4680212, “Discovery of T-1101 tosylate as a first-in-class clinical candidate for Hec1/Nek2 inhibition in cancer therapy” (Eur J Med Chem, 2020).
The source made the active and inactive calls.

What was measured:
[1] = AUC in CD-1 mouse at 10 mg/kg, po administered as single dose via gavage by LC-MS/MS analysis; type: ADME, organism-based; design: dose 10 mg/kg; settings: in vivo
[2] = Oral bioavailability in CD-1 mouse at 10 mg/kg administered as single dose via gavage by LC-MS/MS analysis; type: ADME, organism-based; settings: in vivo
HEC1/NEK2 (Homo sapiens) [3] = target: T1, HEC1/NEK2 (Homo sapiens) (UniProt P51955+O14777); experiment: Inhibition of Hec1-Nek2 protein-protein interaction in human K562 cells at 100 nM measured after 6 hrs by coimmunoprecipitation assay; type: cell-based
HEC1/NEK2 (Homo sapiens) [4] = target: T1, HEC1/NEK2 (Homo sapiens); experiment: Inhibition of Hec1-Nek2 protein-protein interaction in human K562 cells assessed as reduction in Nek2 level at 1 uM by Western blot analysis; type: cell-based; settings: TDE = time-dependent effect
HeLa [5] = experiment: Induction of apoptosis in human HeLa cells assessed as increase in cleaved caspase 3 protein expression at 1 uM measured after 24 hrs by Western blot analysis; type: functional, cell-based
HeLa [6] = experiment: Induction of apoptosis in human HeLa cells assessed as increase in cleaved PARP protein expression at 1 uM measured after 24 hrs by Western blot analysis; type: functional, cell-based
HeLa [7] = experiment: Induction of apoptosis in human HeLa cells assessed as decrease in Mcl-1 expression at 1 uM measured after 24 hrs by Western blot analysis; type: functional, cell-based
HeLa [8] = experiment: Induction of apoptosis in human HeLa cells assessed as decrease in XIAP expression at 1 uM measured after 24 hrs by Western blot analysis; type: functional, cell-based
HeLa [9] = experiment: Induction of apoptosis in human HeLa cells assessed as decrease in cyclin A1 expression at 1 uM measured after 24 hrs by Western blot analysis; type: functional, cell-based
HeLa [10] = experiment: Induction of apoptosis in human HeLa cells assessed as decrease in cyclin B1 expression at 1 uM measured after 24 hrs by Western blot analysis; type: functional, cell-based
HeLa [11] = experiment: Induction of apoptosis in human HeLa cells assessed as decrease in cyclin D1 expression at 1 uM measured after 24 hrs by Western blot analysis; type: functional, cell-based
MES-SA/Dx5 = experiment: Antiproliferative activity against human MES-SA/Dx5 cells measured after 96 hrs by CellTiter 96 Aqueous One Solution Reagent based assay; type: functional, cell-based
NCI/ADR-RES = experiment: Antiproliferative activity against human NCI/ADR-RES cells measured after 96 hrs by CellTiter 96 Aqueous One Solution Reagent based assay; type: functional, cell-based
HeLa [12] = experiment: Down regulation of Pgp expression in human HeLa cells; type: functional, cell-based
MDA-MB-231 = experiment: Down regulation of Pgp expression in human MDA-MB-231 cells; type: functional, cell-based

T1 sequence (O14777 whole entry, looked up): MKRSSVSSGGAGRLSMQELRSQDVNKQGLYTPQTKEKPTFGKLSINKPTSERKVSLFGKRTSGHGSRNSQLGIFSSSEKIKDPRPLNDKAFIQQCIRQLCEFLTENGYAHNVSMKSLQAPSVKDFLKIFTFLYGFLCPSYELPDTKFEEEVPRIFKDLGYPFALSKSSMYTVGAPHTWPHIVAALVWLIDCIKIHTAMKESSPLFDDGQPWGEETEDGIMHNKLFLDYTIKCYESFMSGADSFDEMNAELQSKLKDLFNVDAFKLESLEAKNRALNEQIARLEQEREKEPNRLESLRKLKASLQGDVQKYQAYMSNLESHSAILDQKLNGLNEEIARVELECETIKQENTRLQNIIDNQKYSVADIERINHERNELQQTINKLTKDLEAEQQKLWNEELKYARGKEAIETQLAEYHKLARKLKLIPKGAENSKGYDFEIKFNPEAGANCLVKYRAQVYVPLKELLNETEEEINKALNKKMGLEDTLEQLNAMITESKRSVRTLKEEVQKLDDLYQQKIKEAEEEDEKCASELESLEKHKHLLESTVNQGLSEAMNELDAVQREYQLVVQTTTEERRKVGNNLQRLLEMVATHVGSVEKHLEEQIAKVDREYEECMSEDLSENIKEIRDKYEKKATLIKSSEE
T1 sequence (P51955 whole entry, looked up): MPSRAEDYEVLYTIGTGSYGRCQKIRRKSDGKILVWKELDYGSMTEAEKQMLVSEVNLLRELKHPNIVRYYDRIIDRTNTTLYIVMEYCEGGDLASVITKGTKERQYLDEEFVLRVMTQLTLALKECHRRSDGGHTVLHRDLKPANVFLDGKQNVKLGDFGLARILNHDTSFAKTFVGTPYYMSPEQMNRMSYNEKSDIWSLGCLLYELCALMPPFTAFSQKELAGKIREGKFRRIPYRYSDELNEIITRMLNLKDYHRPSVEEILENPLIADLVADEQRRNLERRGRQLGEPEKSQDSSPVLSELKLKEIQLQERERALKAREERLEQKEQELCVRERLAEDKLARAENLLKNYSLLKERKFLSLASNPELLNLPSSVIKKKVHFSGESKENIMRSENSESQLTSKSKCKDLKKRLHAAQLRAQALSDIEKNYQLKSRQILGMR

COCCOc1cnc(Sc2cc(C)c(-c3csc(NC(=O)c4ccncc4)n3)c(C)c2)cn1.Cl
84%: bioavailability [2]
50.9 µM·h: AUC [1]

COCCOc1cnc(Sc2cc(C)c(-c3csc(NC(=O)c4ccncc4)n3)c(C)c2)cn1
active: inhibition (HEC1/NEK2 (Homo sapiens) [3]) | Activity (HEC1/NEK2 (Homo sapiens) [4]) Tde | Activity (HeLa [5]) | Activity (HeLa [6]) | Activity (HeLa [7]) | Activity (HeLa [8]) | Activity (HeLa [9]) | Activity (HeLa [10]) | Activity (HeLa [11]) | Activity (MES-SA/Dx5) | Activity (NCI/ADR-RES) | Activity (HeLa [12]) | Activity (MDA-MB-231)
